The test system of the assay is multi-drug resistant A. baumannii strains. Description: Minimum inhibitory concentration (MIC), broth microdilution method according to CLSI guidelines. The assay is classed as cell-based, Acinetobacter baumannii. As to conditions: for MIC: Acinetobacter baumannii, read-out: MIC against A. baumannii. Here is the method:
MIC values for the compounds were determined using the broth microdilution method according to the official CLSI guidelines. Acinetobacter baumannii test strains were grown overnight in Mueller-Hinton (MH) broth at 37° C. In a 96-well microtiter plate, 50 μl of serial two-fold dilutions of an enacyloxin derivative in MH broth were mixed with 50 μl of bacterial suspension, diluted to a concentration of 10^6 CFU/ml in MH broth. The desired inoculum density was achieved using a 0.5 McFarland turbidity standard.

[1] abbreviates: multi-drug resistant A. baumannii strains, broth microdilution in MH broth, 18 h at 37° C.

≈ marks a conversion by molar mass, not a printed value. Read-outs that look alike come from different tables or passages of the source.

Regarding 18-dechloro-enacyloxin IIa [Compound 2], the “MIC against A. baumannii” value under setting [1] is 4 µg/mL.
What is called MIC is the smallest concentration in the dilution series that meets the test's criterion for growth inhibition. For `CC/C=C/[C@@H](OC(N)=O)[C@@H](Cl)[C@H](O)CC(O)[C@@H](O)[C@H](O)[C@H](C)/C(Cl)=C/C=C/C=C(C)/C=C/C=C/C(=O)O[C@@H]1C[C@@H](C(=O)O)CC[C@@H]1O` (stereo in doubt) [Compound 8, 15-hydroxy-enacyloxin IIa], the MIC (18 h) worked out at 8 µg/mL (≈ 11.4 µM).
For `CC/C=C/[C@@H](O)[C@@H](Cl)[C@H](O)CC(O)[C@@H](O)[C@H](O)[C@H](C)/C(Cl)=C/C=C/C=C(C)/C=C/C=C/C(=O)O[C@@H]1C[C@@H](C(=O)O)CC[C@@H]1O` (stereo in doubt) [Compound 9, 15-hydroxy-decarbamoyl enacyloxin IIa], under setting [1], the MIC came to 1 µg/mL (≈ 1.51 µM).
As to `CC/C=C/[C@@H](OC(N)=O)[C@@H](Cl)[C@H](O)CC(=O)C[C@H](O)[C@H](C)/C(Cl)=C/C=C/C=C(C)/C=C/C=C/C(=O)O[C@@H]1C[C@@H](C(=O)O)CC[C@@H]1O` [Compound 1, 14-dehydroxy-enacyloxin IIa], the MIC under setting [1] turned out to be 2 µg/mL (≈ 2.91 µM).
In the case of `CC/C=C/C1OC(O)([C@@H](O)[C@H](O)[C@H](C)/C(Cl)=C/C=C/C=C(C)/C=C/C=C/C(=O)O[C@@H]2C[C@@H](C(=O)O)CC[C@@H]2O)CC(O)C1Cl` (stereo partly drawn) [Compound 3, decarbamoyl-enacyloxin IIa], the MIC under setting [1] is 4 µg/mL (≈ 6.06 µM).
For `CC/C=C/[C@@H](OC(N)=O)[C@@H](Cl)[C@H](O)CC(=O)[C@@H](O)[C@H](O)[C@H](C)/C(Cl)=C/C=C/C=C(C)/C=C/C=C/C(=O)O[C@@H]1C[C@@H](C(=O)O)C[C@@H](O)[C@@H]1O` [Compound 4, 5′-hydroxy-enacyloxin IIa], the MIC (18 h) was determined as 16 µg/mL (≈ 22.3 µM).
With `CC/C=C/C1OC(O)(C[C@H](O)[C@H](C)/C(Cl)=C/C=C/C=C(C)/C=C/C=C/C(=O)O[C@@H]2C[C@@H](C(=O)O)CC[C@@H]2O)CC(O)C1Cl` (stereo partly drawn) [Compound 5, 14-dehydroxy-18-decarbamoyl-enacyloxin IIa], under setting [1], the MIC was determined as 8 µg/mL (≈ 12.4 µM).
The same measure, in the same setting: for `CC/C=C/[C@H](C[C@H](O)CC(=O)C[C@H](O)[C@H](C)/C(Cl)=C/C=C/C=C(C)/C=C/C=C/C(=O)O[C@@H]1C[C@@H](C(=O)O)CC[C@@H]1O)OC(N)=O` [Compound 6, 14-dehydroxy-18-dechloro-enacyloxin IIa] the value was 8 µg/mL (≈ 12.3 µM); for `CC/C=C/[C@@H](OC(N)=O)[C@@H](Cl)[C@H](O)CC(=O)[C@@H](O)[C@H](O)[C@H](C)/C=C/C=C/C=C(C)/C=C/C=C/C(=O)O[C@@H]1C[C@@H](C(=O)O)CC[C@@H]1O` [Compound 7, 11-dechloro-enacyloxin IIa], 4 µg/mL (≈ 5.99 µM).
Consider `CC/C=C/C(=O)C[C@H](O)CC(=O)[C@@H](O)[C@H](O)[C@H](C)/C(Cl)=C/C=C/C=C(C)/C=C/C=C/C(=O)O[C@@H]1C[C@@H](C(=O)O)CC[C@@H]1O` [Compound 10, 18-dechloro-decarbamoyl-enacyloxin IIa], for which, where the note is “18 h”, the MIC stood at 32 µg/mL (≈ 51.4 µM).
As for `CC/C=C/[C@@H](O)C[C@H](O)CC(O)[C@@H](O)[C@H](O)[C@H](C)/C(Cl)=C/C=C/C=C(C)/C=C/C=C/C(=O)O[C@@H]1C[C@@H](C(=O)O)CC[C@@H]1O` (stereo partly drawn) [Compound 11], the MIC under setting [1] stood at 8 µg/mL (≈ 12.8 µM).
For the compound `CC/C=C/[C@@H](O)C[C@H](O)CC(O)C[C@H](O)[C@H](C)/C=C/C=C/C=C(C)/C=C/C=C/C(=O)O[C@@H]1C[C@@H](C(=O)O)CC[C@@H]1O` (stereo partly drawn) [Compound 12], under setting [1], the MIC was over 64 µg/mL.
Same read-out and setting: under `CC/C=C/[C@@H](OC(N)=O)[C@@H](Cl)[C@H](O)CC(=O)[C@@H](O)[C@H](O)[C@H](C)/C(Cl)=C/C=C/C=C(C)/C=C/C=C/C(=O)O[C@@H]1C[C@H](C(=O)O)CC[C@H]1O` [Compound 17] stands 2 µg/mL (≈ 2.85 µM).
Take `CC/C=C/[C@@H](OC(N)=O)[C@@H](Cl)[C@H](O)CC(=O)[C@@H](O)[C@H](O)[C@H](C)/C(Cl)=C/C=C/C=C(C)/C=C/C=C/C(=O)N[C@H]1CCC[C@H](C(=O)O)C1` [Compound 21]: under setting [1], the MIC came to 8 µg/mL (≈ 11.7 µM).
On the same count and under the same terms, under `CC/C=C/[C@@H](OC(N)=O)[C@@H](Cl)[C@H](O)CC(=O)[C@@H](O)[C@H](O)[C@H](C)/C(Cl)=C/C=C/C=C(C)/C=C/C=C/C(=O)O[C@H]1CCC[C@H](C(=O)O)C1` [Compound 22] stands 4 µg/mL (≈ 5.83 µM).
For the compound `CC/C=C/[C@@H](OC(N)=O)[C@@H](Cl)[C@H](O)CC(=O)[C@@H](O)[C@H](O)[C@H](C)/C(Cl)=C/C=C/C=C(C)/C=C/C=C/C(=O)NCC(O)CC(=O)O` (stereo partly drawn) [Compound 23, enacyloxin-4-amino-3-hydroxybutyric acid conjugate], under “18 h”, the MIC is 64 µg/mL (≈ 96.7 µM).
In the case of `CC/C=C/[C@@H](OC(N)=O)[C@@H](Cl)[C@H](O)CC(=O)[C@@H](O)[C@H](O)[C@H](C)/C(Cl)=C/C=C/C=C(C)/C=C/C=C/C(=O)O[C@@H]1CC(C(=O)O)=CC[C@@H]1O` [Compound 28, Δ5912-14 unsaturated enacyloxin analogue], the MIC under setting [1] was determined as 0.5 µg/mL (≈ 0.714 µM).
Turning to `CC/C=C/[C@@H](O)[C@@H](Cl)[C@H](O)C[C@@H](O)[C@@H](O)[C@H](O)[C@H](C)/C(Cl)=C/C=C/C=C(C)/C=C/C=C/C(=O)O[C@@H]1CC(C(=O)O)=CC[C@@H]1O` [Compound 29, Δ5930/32/12-14 unsaturated enacyloxin analogue], the MIC under setting [1] came to 1 µg/mL (≈ 1.52 µM).
In the case of `CC/C=C/[C@@H](OC(N)=O)[C@@H](Br)[C@H](O)CC(=O)[C@@H](O)[C@H](O)[C@H](C)/C(Br)=C/C=C/C=C(C)/C=C/C=C/C(=O)O[C@@H]1C[C@@H](C(=O)O)CC[C@@H]1O` [Compound 30], the MIC under setting [1] turned out to be 1 µg/mL (≈ 1.26 µM).
With `CC/C=C/[C@@H](OC(N)=O)[C@@H](Cl)[C@H](O)CC(=O)[C@@H](O)[C@H](O)[C@H](C)/C(Br)=C/C=C/C=C(C)/C=C/C=C/C(=O)O[C@@H]1C[C@@H](C(=O)O)CC[C@@H]1O` [Compound 31], the MIC under setting [1] is 2 µg/mL (≈ 2.68 µM).
On the same count and under the same terms, for `CC/C=C/[C@H](C[C@H](O)CC(=O)[C@@H](O)[C@H](O)[C@H](C)/C(Br)=C/C=C/C=C(C)/C=C/C=C/C(=O)O[C@@H]1C[C@@H](C(=O)O)CC[C@@H]1O)OC(N)=O` [Compound 32] the value was 16 µg/mL (≈ 22.5 µM).
Same read-out and setting: for `CC/C=C/[C@@H](O)[C@@H](Br)[C@H](O)CC(O)[C@@H](O)[C@H](O)[C@H](C)/C(Br)=C/C=C/C=C(C)/C=C/C=C/C(=O)O[C@@H]1C[C@@H](C(=O)O)CC[C@@H]1O` (stereo partly drawn) [Compound 33] the value was 1 µg/mL (≈ 1.33 µM).
Consider `CC/C=C/[C@@H](O)[C@@H](Cl)[C@H](O)CC(O)[C@@H](O)[C@H](O)[C@H](C)/C(Br)=C/C=C/C=C(C)/C=C/C=C/C(=O)O[C@@H]1C[C@@H](C(=O)O)CC[C@@H]1O` (stereo partly drawn) [Compound 34], for which the MIC (18 h) was 2 µg/mL (≈ 2.83 µM).
For `CC/C=C/[C@@H](O)C[C@H](O)CC(O)[C@@H](O)[C@H](O)[C@H](C)/C(Br)=C/C=C/C=C(C)/C=C/C=C/C(=O)O[C@@H]1C[C@@H](C(=O)O)CC[C@@H]1O` (stereo partly drawn) [Compound 35], the MIC under setting [1] came out at 32 µg/mL (≈ 47.6 µM).

Values taken from patent US20200048183A1, “ANTIMICROBIAL AGENTS” (THE UNIVERSITY OF WARWICK, priority 2017, published 2020).
